Test results as given in patent US10058587B2, “Peptide composition for cancer treatment by inhibiting TRPV6 calcium channel activity” (priority 2008, dated 2018).
Where no end group is shown, it is not given here.

What was measured:
[1] = Physiological effects after i.v. injection into CD1 mice (blood pressure, heart rate, neurological/behavioral); assay type: in vivo
Method: After in vivo i.v. injection into CD1 mice, SorC13 caused a small spike (approximately 25%) in blood pressure in the first 15 min which disappeared by 1 hour.

[2] = test system: MDA-MB-468 (MB 468) breast cancer cell line; assay: Induction of apoptosis (APO-ONE caspase 3/7) and cell viability (CellTiter Blue); assay type: cell-based, human; set-up: key: cell viability decreased (+); or not (−)
Method: MCF-7, MDA-MB-231, MDA-MB-415, MDA-MB-468 were grown in DMEM modified with 10% (v/v) fetal bovine serum, 2 mM L-glutamine and 50 ug/mL each of penicillin and streptomycin.
The levels of apoptotic induction and cell viability were determined by multiplexing the measurements for single samples. CellTiter Blue and APO-ONE assay systems from Promega allows the determination of cell viability correlated to cell number, and induction of apoptosis. This protocol uses a fluorgenic peptide that contains a peptide recognition-sequence for caspase 3 and caspase 7, […] proteolytic enzymes of the apoptosis cascade. The CellTiter Blue reagent was added to wells in a 96-well plate containing cells under test, immediately after addition of peptide solution or vehicle. About 5000 cells were plated into the wells the day before. At the chosen time (Day 1, Day 2 etc.) the fluorescence was measured at 590 nm (emission) after excitation at 560 nm. The caspase 3/7 activity was measured (485 nm Ex/527 nm Em) in the same wells after adding 120 uL of the Apo-ONE reagent, freeze fracturing at −80° C. for 1 hr, and incubating for 1 hr at room temperature.
For this work, the concentrations of SorC13 and SorC27 used were 0 uM, 1 uM, 10 uM and 100 uM. The experiments extended over a 5 to 7 day period. All measurements were done in quadruplicate with both a blank (no cells) and control (vehicle, no peptide) used to correct the test measurements. The time-response data, and the dose-response data were plotted as means±standard error of the mean. Any statistical comparisons were done with the Student's t-test or by ANOVA analysis over the dose course. The level of statistical significance was considered to be the 95% confidence interval (i.e., p≤0.05).

Row | Sequence | Physiol. effects in vivo (mice) @ 5 mg/kg ([1]; 5 mg/kg) | change in blood pressure or heart rate ([1]; i.v., 1 hour measurement period) | neurological/behavioral changes ([1]; i.v., over 72 hours) | Decline in cell viability ([2]; SorC13 1 uM) | Decline in cell viability ([2]; SorC13 10 uM) | Decline in cell viability ([2]; SorC13 100 uM)
1 | EGKLSSNDTEGGLCKEFLHPSKVDLPR [SorC27] | None observed over 72 hr | no change in blood pressure or heart rate | no also neurological/behavioral changes | – | – | –
2 | KEFLHPSKVDLPR [SorC13, KEFLHPSKVDLPR] | – | – | – | + | + | +
